Measured values taken from US11780826B2 (Amgen Inc., priority 2017, dated 2023).

tested on: Bovine cardiac myofibrils; experiment: In vitro model of dose-dependent myofibril ATPase modulation (AC1.4, pyruvate kinase/lactate dehydrogenase-coupled ATPase assay at pCa25); assay type: biochemical; details: concentration at which ATPase activity was 1.4-fold higher than the bottom of the dose curve, mean of a minimum of two independent tests
How it was run: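 Bovine cardiac myofibrils, detergent-treated; 0.25-1.0 mg/ml. Buffer: K-PIPES 12 mM, MgCl2 2 mM, DTT 1 mM, BSA 0.1 mg/ml, pH 6.80, 22° C; Ca2+ set by EGTA/CaCl2. ATP 1 mM, NADH/PEP-coupled, A340. 4-parameter fit; n≥2.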

| SMILES | AC1.4 [µM] |
| --- | --- |
| O=C(N[C@@H](c1ccc(C(F)(F)F)cc1F)C1CC1)[C@H]1CCCCN1C(=O)c1ccc2c(c1)S(=O)(=O)CC2 [Example 653, (2R)—N—((R)-cyclopropyl(2-fluoro-4-(trifluoromethyl)phenyl)methyl)-1-((1,1-dioxido-2,3-dihydro-1-benzothiophen-6-yl)carbonyl)-2-piperidinecarboxamide] | 4.5245 |
| CS(=O)(=O)c1cccc(C(=O)N2C[C@@H](C(F)F)C[C@@H]2C(=O)N[C@@H](c2ccc(C(F)(F)F)cc2F)C2CC2)c1 [Example 656, (4S)-N-((R)-cyclopropyl(2-fluoro-4-(trifluoromethyl)phenyl)methyl)-4-(difluoromethyl)-1-(3-(methylsulfonyl)benzoyl)-D-prolinamide] | 4.071 |
| Cc1ccnc(C(=O)N2[C@@H](C(=O)N[C@@H](c3cc(F)c(C(F)(F)F)cc3F)C3CC3)C[C@H]3C[C@H]32)c1 [Example 658, (1R,3R,5R)-N-((R)-cyclopropyl(2,5-difluoro-4-(trifluoromethyl)phenyl)methyl)-2-((4-methyl-2-pyridinyl)carbonyl)-2-azabicyclo[3.1.0]hexane-3-carboxamide] | 4.159 |
| CCc1ccnc(C(=O)N2[C@@H](C(=O)N[C@@H](c3cc(F)c(C(F)(F)F)cc3F)C3CC3)C[C@H]3C[C@H]32)c1 [Example 661, (1R,3R,5R)-N-((R)-cyclopropyl(2,5-difluoro-4-(trifluoromethyl)phenyl)methyl)-2-((4-ethyl-2-pyridinyl)carbonyl)-2-azabicyclo[3.1.0]hexane-3-carboxamide] | 4.1595 |
| CS(=O)(=O)c1cncc(C(=O)N2CCC[C@@H]2C(=O)N[C@@H](c2ccc(C(F)(F)F)cc2F)C2CC2)c1 [Example 662, N-((R)-cyclopropyl(2-fluoro-4-(trifluoromethyl)phenyl)methyl)-1-((5-(methylsulfonyl)-3-pyridinyl)carbonyl)-D-prolinamide] | 4.4365 |
| CS(=O)(=O)c1cc(C(=O)N2[C@@H](C(=O)N[C@@H](c3ccc(C(F)(F)F)c(F)c3)C3CC3)C[C@H]3C[C@H]32)ccn1 [Example 665, (1R,3R,5R)-N-((R)-cyclopropyl(3-fluoro-4-(trifluoromethyl)phenyl)methyl)-2-((2-(methylsulfonyl)-4-pyridinyl)carbonyl)-2-azabicyclo[3.1.0]hexane-3-carboxamide] | 4.554 |
| Cc1ccc(S(C)(=O)=O)cc1C(=O)N1CCC[C@@H]1C(=O)N[C@@H](c1ccc(C(F)(F)F)cc1F)C1CC1 [Example 666, N-((R)-cyclopropyl(2-fluoro-4-(trifluoromethyl)phenyl)methyl)-1-(2-methyl-5-(methylsulfonyl)benzoyl)-D-prolinamide] | 4.7065 |
| O=C(N[C@@H](c1cc(F)c(Cl)cc1F)C1CC1)[C@H]1C[C@H]2C[C@H]2N1C(=O)c1cccc(C(F)(F)F)n1 [Example 667, (1R,3R,5R)-N-((R)-(4-chloro-2,5-difluorophenyl)(cyclopropyl)methyl)-2-((6-(trifluoromethyl)-2-pyridinyl)carbonyl)-2-azabicyclo[3.1.0]hexane-3-carboxamide] | 4.708 |
| C[C@@]1(C(=O)N[C@@H](c2cc(F)c(C(F)(F)F)cc2F)C2CC2)CCN1C(=O)c1cccc(S(C)(=O)=O)c1 [Example 670, (2S)-N-((R)-cyclopropyl(2,5-difluoro-4-(trifluoromethyl)phenyl)methyl)-2-methyl-1-(3-(methylsulfonyl)benzoyl)-2-azetidinecarboxamide] | 4.735 |
| CS(=O)(=O)c1cccc(C(=O)N2CCC[C@@H]2C(=O)N[C@@H](c2ccc(C(F)(F)F)cc2F)C2(F)COC2)c1 [Example 673, N-((S)-(3-fluoro-3-oxetanyl)(2-fluoro-4-(trifluoromethyl)phenyl)methyl)-1-(3-(methylsulfonyl)benzoyl)-D-prolinamide] | 4.897 |
| CS(=O)(=O)c1cc(C(=O)N2CCC[C@@H]2C(=O)N[C@@H](c2ccc(C(F)(F)F)cc2F)C2CC2)ccn1 [Example 675, N-((R)-cyclopropyl(2-fluoro-4-(trifluoromethyl)phenyl)methyl)-1-((2-(methylsulfonyl)-4-pyridinyl)carbonyl)-D-prolinamide] | 4.9395 |

Now from value to compound:

| AC1.4 [µM] | SMILES |
| --- | --- |
| 4.421 | N#CC1CN(S(=O)(=O)N2CC[C@H](C(=O)N3CCC[C@@H]3C(=O)NCc3ccc(C(F)(F)F)cc3)C2)C1 [Example 648, 1-(((3S)-1-((3-cyano-1-azetidinyl)sulfonyl)-3-pyrrolidinyl)carbonyl)-N-(4-(trifluoromethyl)benzyl)-D-prolinamide] |
| 4.4365 | CON(C)S(=O)(=O)c1cccc(C(=O)N2CCC[C@@H]2C(=O)NCc2ccc(C(F)(F)F)cc2)c1 [Example 649, 1-(3-(methoxy(methyl)sulfamoyl)benzoyl)-N-(4-(trifluoromethyl)benzyl)-D-prolinamide] |
| 4.4705 | N#CC1CN(S(=O)(=O)N2CCC[C@H](C(=O)N3CCC[C@@H]3C(=O)NCc3cc(Cl)ccc3Cl)C2)C1 [Example 651, 1-(((3S)-1-((3-cyano-1-azetidinyl)sulfonyl)-3-piperidinyl)carbonyl)-N-(2,5-dichlorobenzyl)-D-prolinamide] |
| 4.5245 | N#CC1CN(S(=O)(=O)N2CCC[C@H](C(=O)N3CCC[C@@H]3C(=O)NCc3ccc(F)cc3C(F)(F)F)C2)C1 [Example 652, 1-(((3S)-1-((3-cyano-1-azetidinyl)sulfonyl)-3-piperidinyl)carbonyl)-N-(4-fluoro-2-(trifluoromethyl)benzyl)-D-prolinamide] |
| 4.538 | O=C(NCc1ccc(C(F)(F)F)cc1)[C@H]1CCCN1C(=O)[C@H]1CCCN(S(=O)(=O)N2CC3(CCO3)C2)C1 [Example 654, (R)-1-((S)-1-(1-oxa-6-azaspiro[3.3]heptan-6-ylsulfonyl)piperidine-3-carbonyl)-N-(4-(trifluoromethyl)benzyl)pyrrolidine-2-carboxamide] |
| 4.5443 | N#CC1CN(S(=O)(=O)c2cccc(C(=O)N3CCC[C@@H]3C(=O)NCc3cccc(C(F)(F)F)n3)c2)C1 [Example 655, 1-((3-((3-cyano-1-azetidinyl)sulfonyl)phenyl)carbonyl)-N-((6-(trifluoromethyl)-2-pyridinyl)methyl)-D-prolinamide] |
| 4.572 | N#CC1CN(S(=O)(=O)N2CCC[C@H](C(=O)N3CCC[C@@H]3C(=O)NC3COc4ccc(C(F)(F)F)cc43)C2)C1 (stereo partly drawn) [Example 657, (2R)-1-((S)-1-((3-cyanoazetidin-1-yl)sulfonyl)piperidine-3-carbonyl)-N-(5-(trifluoromethyl)-2,3-dihydrobenzofuran-3-yl)pyrrolidine-2-carboxamide] |
| 4.605 | N#CC1CN(S(=O)(=O)N2CCC[C@H](C(=O)N3CCC[C@@H]3C(=O)NCc3c(F)cccc3C(F)(F)F)C2)C1 [Example 659, 1-(((3S)-1-((3-cyano-1-azetidinyl)sulfonyl)-3-piperidinyl)carbonyl)-N-(2-fluoro-6-(trifluoromethyl)benzyl)-D-prolinamide] |
| 4.606 | Cc1ccc(Cl)c(CNC(=O)[C@H]2CCCN2C(=O)[C@H]2CCCN(S(=O)(=O)N3CC(C#N)C3)C2)c1 [Example 660, N-(2-chloro-5-methylbenzyl)-1-(((3S)-1-((3-cyano-1-azetidinyl)sulfonyl)-3-piperidinyl)carbonyl)-D-prolinamide] |
| 4.6285 | CC1(O)CN(S(=O)(=O)N2CCC[C@H](C(=O)N3CCC[C@@H]3C(=O)NCc3ccc(Cl)c(F)c3)C2)C1 [Example 663, N-(4-chloro-3-fluorobenzyl)-1-(((3S)-1-((3-hydroxy-3-methyl-1-azetidinyl)sulfonyl)-3-piperidinyl)carbonyl)-D-prolinamide] |
| 4.669 | O=C(NCc1ccc(C(F)(F)F)cc1)[C@H]1CCCN1C(=O)[C@H]1CCCN(S(=O)(=O)C2COC2)C1 [Example 664, 1-(((3S)-1-(3-oxetanylsulfonyl)-3-piperidinyl)carbonyl)-N-(4-(trifluoromethyl)benzyl)-D-prolinamide] |
| 4.71 | CCC(NC(=O)[C@H]1CCCN1C(=O)[C@H]1CCCN(S(=O)(=O)N2CC(C)(O)C2)C1)c1ccc(C(F)(F)F)cc1 (stereo partly drawn) [Example 668, (2R)-1-((S)-1-((3-hydroxy-3-methylazetidin-1-yl)sulfonyl)piperidine-3-carbonyl)-N-(1-(4-(trifluoromethyl)phenyl)propyl)pyrrolidine-2-carboxamide] |
| 4.727 | CC1(O)CN(S(=O)(=O)N2CCC[C@H](C(=O)N3CCC[C@@H]3C(=O)NCc3ccc(C(F)(F)F)cc3F)C2)C1 [Example 669, N-(2-fluoro-4-(trifluoromethyl)benzyl)-1-(((3S)-1-((3-hydroxy-3-methyl-1-azetidinyl)sulfonyl)-3-piperidinyl)carbonyl)-D-prolinamide] |
| 4.776 | N#CC1CN(S(=O)(=O)c2cccc(C(=O)N3Cc4ccccc4CC3C(=O)NCc3ccc(C(F)(F)F)cc3)c2)C1 (stereo not drawn) [Example 671, 2-(3-((3-cyanoazetidin-1-yl)sulfonyl)benzoyl)-N-(4-(trifluoromethyl)benzyl)-1,2,3,4-tetrahydroisoquinoline-3-carboxamide] |
| 4.8355 | COc1ccc(CNC(=O)[C@H]2CCCN2C(=O)[C@H]2CCCN(S(=O)(=O)N3CC(C#N)C3)C2)cc1C [Example 672, 1-(((3S)-1-((3-cyano-1-azetidinyl)sulfonyl)-3-piperidinyl)carbonyl)-N-(4-methoxy-3-methylbenzyl)-D-prolinamide] |
| 4.9025 | N#CC1CN(S(=O)(=O)N2CCC[C@H](C(=O)N3CCC[C@@H]3C(=O)NCc3cc(C(F)(F)F)ccc3F)C2)C1 [Example 674, 1-(((3S)-1-((3-cyano-1-azetidinyl)sulfonyl)-3-piperidinyl)carbonyl)-N-(2-fluoro-5-(trifluoromethyl)benzyl)-D-prolinamide] |
